Data reported in PMC8459971, “Evaluation of the hepatotoxicity of the novel GPR40 (FFAR1) agonist CPL207280 in the rat and monkey” (PLoS ONE, 2021).
Where “and” joins values, the source holds several entries; their conditions need not be identical. Identical values can stand only once. Like-named read-outs stand apart in the source and are kept apart here.

What was measured:
[1] = Viability assay, human primary hepatocytes, RT-glo, 48 h; assay type: cell-based; conditions: human, primary human hepatocytes, sheet Fig1 panel C (primary human hepatocytes), 48 h, replicates, read-out: viability, normalized to DMSO-treated controls
Description: (§1) To study the viability of the liver cells, 5 × 10^3 HepG2 (ATCC®) or human primary cells (ThermoFisher Scientific, USA) were seeded in 100 μL of DMEM media (Gibco; Thermo Fisher Scientific, USA) supplemented with fetal bovine serum (FBS)- in a 96-well plate. […] The experiments were performed in triplicates.

[2] = system: human primary hepatocytes; assay: as above; assay type: cell-based; conditions: 48 h
Description: as §1

[3] = Stability in microsomes, human; assay type: in vitro ADME; conditions: for average DEG [%]: human microsomes, with cofactors
Description: (§2) The final incubation volume was 500 μL. Two control compounds (verapamil and donepezil) were included for each microsomal species, along with the appropriate vehicle control. The reactions were terminated by transferring 50 μL of incubate to 100 μL methanol containing an internal standard (metoprolol) at appropriate time points (0, 10, 20, 40, 60, and 120 min for the test compound and 0, 5, 10, 20, 40, and 60 min for the control compounds). The termination plates were centrifuged at 4000 x g at 4°C for 30 min to precipitate the protein. The supernatants were then collected for analysis, and LC-MS/MS was used for detection purposes. The system consisted of an Acquity™ Binary Solvent Manager, Acquity™ 4-position heated column manager, 2777 Ultra High Pressure Autosampler, and a Xevo-TQ MS triple quadrupole mass spectrometer (Waters Ltd., Herts, UK). This process was carried out twice.

[4] = Stability in microsomes, dog; assay type: in vitro ADME; conditions: for average DEG [%]: dog microsomes, with cofactors
Description: as §2

[5] = Single-dose pharmacokinetics in rats (p.o. and i.v.); assay type: in vivo, rat; set-up: plasma conc: unit not given here; conditions: for plasma conc: single animals; for AUC: read-out: AUC
MRP3 = MRP3 (Homo sapiens, UniProt O15438); assay: Vesicular transport inhibition assay, MRP3; conditions: for Accumulation (counts per minute; CPM) with AMP / Accumulation (counts per minute; CPM) with ATP: MRP3;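 also: membrane vesicles with radiolabelled probe substrate and 2 mM glutathione, 4 mM ATP versus AMP background control, vesicle-trapped substrate quantified by liquid scintillation counting after filtration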;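 as to Accumulation (counts per minute; CPM) with AMP: ATP 4 mM vs AMP background separates transporter uptake from diffusion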;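 as to Accumulation (counts per minute; CPM) with ATP: ATP 4 mM vs AMP background separates transporter uptake from diffusion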
Chain of MRP3 (O15438 whole entry, the tested form may be a part): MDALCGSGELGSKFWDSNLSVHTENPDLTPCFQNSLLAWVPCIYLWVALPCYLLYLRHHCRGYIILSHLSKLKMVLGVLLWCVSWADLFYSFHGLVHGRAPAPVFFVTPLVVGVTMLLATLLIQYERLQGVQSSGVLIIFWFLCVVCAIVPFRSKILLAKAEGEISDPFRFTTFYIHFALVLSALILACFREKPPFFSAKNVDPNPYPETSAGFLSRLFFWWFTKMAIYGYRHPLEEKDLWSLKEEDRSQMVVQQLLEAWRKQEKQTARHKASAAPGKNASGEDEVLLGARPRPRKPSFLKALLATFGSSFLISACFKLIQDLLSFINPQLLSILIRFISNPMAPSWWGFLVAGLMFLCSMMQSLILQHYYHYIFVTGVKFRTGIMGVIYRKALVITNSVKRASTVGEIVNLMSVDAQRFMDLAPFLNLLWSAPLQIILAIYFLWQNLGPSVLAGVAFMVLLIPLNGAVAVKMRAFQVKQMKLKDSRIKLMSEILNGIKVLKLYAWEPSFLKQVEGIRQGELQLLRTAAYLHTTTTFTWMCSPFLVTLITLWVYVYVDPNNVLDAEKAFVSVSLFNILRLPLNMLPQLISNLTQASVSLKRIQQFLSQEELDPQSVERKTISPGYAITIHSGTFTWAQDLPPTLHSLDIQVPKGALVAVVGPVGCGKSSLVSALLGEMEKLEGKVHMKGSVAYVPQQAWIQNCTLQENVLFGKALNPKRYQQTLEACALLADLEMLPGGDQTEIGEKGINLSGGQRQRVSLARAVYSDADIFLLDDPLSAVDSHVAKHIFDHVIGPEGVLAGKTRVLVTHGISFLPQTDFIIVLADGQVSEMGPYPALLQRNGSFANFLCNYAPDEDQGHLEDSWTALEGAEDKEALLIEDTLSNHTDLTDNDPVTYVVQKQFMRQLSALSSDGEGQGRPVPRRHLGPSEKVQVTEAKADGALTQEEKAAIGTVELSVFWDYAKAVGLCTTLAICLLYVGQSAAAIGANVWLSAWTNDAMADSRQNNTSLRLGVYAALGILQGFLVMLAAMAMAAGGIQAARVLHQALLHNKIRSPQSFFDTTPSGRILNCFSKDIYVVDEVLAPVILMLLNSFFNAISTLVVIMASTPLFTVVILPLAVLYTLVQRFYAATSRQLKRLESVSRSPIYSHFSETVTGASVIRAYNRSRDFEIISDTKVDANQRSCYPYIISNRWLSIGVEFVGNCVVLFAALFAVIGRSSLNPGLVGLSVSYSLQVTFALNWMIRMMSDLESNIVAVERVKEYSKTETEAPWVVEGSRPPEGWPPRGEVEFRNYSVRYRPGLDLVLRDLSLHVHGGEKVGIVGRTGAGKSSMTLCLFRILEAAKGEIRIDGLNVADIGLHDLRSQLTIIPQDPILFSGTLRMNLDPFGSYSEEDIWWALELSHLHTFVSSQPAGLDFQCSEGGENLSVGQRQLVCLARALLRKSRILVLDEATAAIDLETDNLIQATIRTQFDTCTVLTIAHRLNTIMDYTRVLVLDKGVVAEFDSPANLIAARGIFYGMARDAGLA
Description: In the vesicular transport inhibition assay (for BSEP, MRP) compounds were incubated with membrane vesicle preparations and the probe substrate. Incubations were carried out in the presence of 4 mM ATP or AMP to distinguish between transporter-mediated uptake and passive diffusion into the vesicles. For MRP2 and MRP3, reactions were carried out in the presence of 2 mM glutathione. Compounds were added to the reaction mixture in 0.75 μL of solvent (1% of the final incubation volume). […] Reactions were initiated by the addition of 25 μL of 12 mM MgATP (or 12 mM AMP in assay buffer as a background control) and preincubated separately. Reactions were quenched by the addition of 200 μL of ice-cold washing buffer and immediate filtration via glass fiber filters mounted on a 96-well plate (filter plate). The filters were washed (5 × 200 μL of ice-cold washing buffer), dried, and the amount of substrate inside the filtered vesicles was determined by liquid scintillation counting.

OATP1A2 = OATP1A2 (Homo sapiens, UniProt P46721); assay: Uptake transporter inhibition assay, OATP1A2; conditions: for Accumulation (counts per minute; CPM) HEK293FT-MOCK / Accumulation (counts per minute; CPM) HEK293FT-OATP1A2: OATP1A2;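 also: cellular uptake of a radiolabeled probe substrate in HBSS pH 7.4 at 37 °C with test compound or solvent, measured by liquid scintillation counting of cell lysates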
Chain of OATP1A2 (P46721 whole entry): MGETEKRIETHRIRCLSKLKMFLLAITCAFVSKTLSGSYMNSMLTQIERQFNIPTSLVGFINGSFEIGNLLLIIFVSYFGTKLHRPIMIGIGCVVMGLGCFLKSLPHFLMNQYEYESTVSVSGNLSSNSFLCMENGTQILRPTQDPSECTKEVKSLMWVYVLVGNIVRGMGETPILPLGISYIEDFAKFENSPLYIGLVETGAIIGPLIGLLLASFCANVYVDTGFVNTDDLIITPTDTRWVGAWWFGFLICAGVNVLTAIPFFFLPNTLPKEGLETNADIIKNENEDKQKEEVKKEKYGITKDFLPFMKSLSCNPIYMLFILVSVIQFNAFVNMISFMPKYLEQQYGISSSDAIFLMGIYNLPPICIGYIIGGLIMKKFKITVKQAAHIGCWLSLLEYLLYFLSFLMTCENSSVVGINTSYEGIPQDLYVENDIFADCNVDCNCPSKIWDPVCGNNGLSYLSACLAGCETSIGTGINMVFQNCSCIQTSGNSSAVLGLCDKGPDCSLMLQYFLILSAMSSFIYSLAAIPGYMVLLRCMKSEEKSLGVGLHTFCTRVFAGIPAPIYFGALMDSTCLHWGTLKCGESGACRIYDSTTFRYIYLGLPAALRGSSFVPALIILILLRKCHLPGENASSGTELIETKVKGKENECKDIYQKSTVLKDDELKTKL
Description: For the uptake transporter inhibition assay, cells were washed twice with 100 μL of the appropriate buffer (HK, pH 7.4) for OATP1B1, followed by HBSS (pH 7.4) for (NTCP, OAT1, OAT2v1, OATP1A2, and OATP1B3). Uptake experiments were carried out at 37 ± 1°C in 50 μL of the respective buffer containing the probe substrate and the compound or solvent. […] After the experiment, cells were washed twice with 100 μL of cold appropriate buffer and lysed with 50 μL of 0.1 M NaOH. Radiolabeled probe substrate transport was determined by measuring an aliquot (35 μL) from each well for liquid scintillation counting.

[6] = Pharmacokinetics in mice, serum and liver concentrations; conditions: for liver conc / serum conc: mouse, 3 mg/kg p.o., individual animals
Description: The mice were separated into four groups of 32 mice per group. […] At time point t = 0, animals received a single dose of the compounds orally. […] Four hours after drug administration, the animals received standard chow. […] After solubilization in extraction buffer, the solutions were shaken for 1 min and then centrifuged for 4 min (4000 x g).

[7] = Dog (Beagle) microsomes, mean n = 2
[8] = rat, plasma, iv, 3 mg/kg, rats, 3 mg/kg i.v.
[9] = rat, plasma, po, 3 mg/kg, rats, 3 mg/kg p.o.

SMILES: Cc1cc(OCCCS(C)(=O)=O)cc(C)c1-c1cccc(COc2ccc3c(c2)OC[C@H]3CC(=O)O)c1 [TAK-875, fasiglifam, reference compound]
- viability at 48 h, 0.78 µM ([1]; 0.78 uM): 117%
- viability at 48 h, 3.125 µM ([1]; 3.125 uM): 113%
- viability at 48 h, 6.25 µM ([1]; 6.25 uM): 89.7%
- viability at 48 h, 25 µM ([1]; 25 uM): 64.7%
- viability at 48 h, 50 µM ([1]; 50 uM): 34.1%
- viability at 48 h, 100 µM ([1]; 100 uM): 4.16%
- viability ([2]; human primary hepatocytes, concentrations up to 10 μM): Neither compound exhibited altered viability
- effect on growth ([2]; primary cells, 100 μM): abolished the growth
- half-life at 3 μM ([3]; Human microsomes, mean n = 2): 3.5 h
- microsomal CLint at 3 μM ([3]; Human microsomes, mean n = 2): 6.6 µL/min/mg
- stability classification in microsomes ([3]; based on the Clint values from different species, reference ranges by Cyprotex (human range given in legend)): stable compound
- average DEG [%] ([3]; 0 min): 100.0%
- average DEG [%] ([3]; 20 min): 110.6%
- average DEG [%] ([3]; 40 min): 92.5%
- average DEG [%] ([3]; 60 min): 85.1%
- half-life at 3 μM [4, 7]: 1.87 h
- microsomal CLint at 3 μM [4, 7]: 12.4 µL/min/mg
- average DEG [%] ([4]; 0 min): 100.0%
- average DEG [%] ([4]; 20 min): 82.2%
- average DEG [%] ([4]; 40 min): 77.1%
- average DEG [%] ([4]; 60 min): 67.7%
- plasma conc ([5]; rat, 3 mg/kg i.v., 0.08 h, 3 mg/kg): 14090 and 15902 and 15227 and 5072
- plasma conc ([5]; rat, 3 mg/kg i.v., 0.5 h, 3 mg/kg): 14558 and 12270 and 9258 and 3810
- plasma conc ([5]; rat, 3 mg/kg i.v., 1 h, 3 mg/kg): 8089 and 7692 and 11373 and 4600
- plasma conc ([5]; rat, 3 mg/kg i.v., 2 h, 3 mg/kg): 5223 and 7517 and 9423
- plasma conc ([5]; rat, 3 mg/kg i.v., 4 h, 3 mg/kg): 3618 and 4301 and 3765
- plasma conc ([5]; rat, 3 mg/kg i.v., 7 h, 3 mg/kg): 1974 and 2103 and 1928 and 4512
- plasma conc ([5]; rat, 3 mg/kg i.v., 12 h, 3 mg/kg): 1056 and 769 and 1435
- plasma conc ([5]; rat, 3 mg/kg p.o., 0.5 h, 3 mg/kg): 1176 and 692 and 854 and 1110
- plasma conc ([5]; rat, 3 mg/kg p.o., 1 h, 3 mg/kg): 1699 and 1467 and 1460 and 1557
- plasma conc ([5]; rat, 3 mg/kg p.o., 2 h, 3 mg/kg): 1890 and 1694 and 1808 and 1814
- plasma conc ([5]; rat, 3 mg/kg p.o., 4 h, 3 mg/kg): 1443 and 1502 and 1610 and 1643
- plasma conc ([5]; rat, 3 mg/kg p.o., 8 h, 3 mg/kg): 681 and 636 and 614 and 960 and 463
- plasma conc ([5]; rat, 3 mg/kg p.o., 24 h): 0
- Tmax [5, 8]: 0.083 h
- Cmax ([5]; rat, plasma, iv, 3 mg/kg, rats, 3 mg/kg i.v., n = 5, read-out: Cmax): 15100 ± 916 ng/mL
- AUC [5, 8]: 45200 ± 4680 ng·h/mL
- bioavailability ([5]; rat, plasma, oral, rats, 3 mg/kg p.o. vs i.v., read-out: F (bioavailability)): 38%
- Tmax [5, 9]: 2 h
- AUC [5, 9]: 15800 ± 1510 ng·h/mL
- Vd ([5]; rat, plasma, rats, 3 mg/kg): 0.25 ± 0.01 L/kg
- k el ([5]; rat, plasma, rats, 3 mg/kg): 6.67e-05 s⁻¹
- greater distribution volume (Vd) than CPL207280 ([5]; rats, 3 mg/kg): 20%
- IC50 (MRP3): 31.8 µM
- Accumulation (counts per minute; CPM) with AMP (MRP3; conc 0.07 µM): 151 CPM and 146 CPM
- Accumulation (counts per minute; CPM) with ATP (MRP3; conc 0.07 µM): 3266 CPM and 3317 CPM
- Accumulation (counts per minute; CPM) with AMP (MRP3; conc 0.21 µM): 149 CPM and 132 CPM
- Accumulation (counts per minute; CPM) with ATP (MRP3; conc 0.21 µM): 3233 CPM and 3776 CPM
- Accumulation (counts per minute; CPM) with AMP (MRP3; conc 0.62 µM): 197 CPM and 169 CPM
- Accumulation (counts per minute; CPM) with ATP (MRP3; conc 0.62 µM): 3398 CPM and 3538 CPM
- Accumulation (counts per minute; CPM) with AMP (MRP3; conc 16.67 µM): 238 CPM and 245 CPM
- Accumulation (counts per minute; CPM) with ATP (MRP3; conc 16.67 µM): 2701 CPM and 2568 CPM
- Accumulation (counts per minute; CPM) with AMP (MRP3; conc 50.00 µM): 232 CPM and 210 CPM
- Accumulation (counts per minute; CPM) with ATP (MRP3; conc 50.00 µM): 1204 CPM and 1302 CPM
- IC50 (OATP1A2): 10.6 µM
- Accumulation (counts per minute; CPM) HEK293FT-MOCK (OATP1A2; conc 0.10 µM): 142 CPM and 152 CPM
- Accumulation (counts per minute; CPM) HEK293FT-OATP1A2 (OATP1A2; conc 0.10 µM): 10423 CPM and 10027 CPM
- Accumulation (counts per minute; CPM) HEK293FT-MOCK (OATP1A2; conc 0.30 µM): 182 CPM and 209 CPM
- Accumulation (counts per minute; CPM) HEK293FT-OATP1A2 (OATP1A2; conc 0.30 µM): 8846 CPM and 9642 CPM
- Accumulation (counts per minute; CPM) HEK293FT-MOCK (OATP1A2; conc 1.00 µM): 191 CPM and 201 CPM
- Accumulation (counts per minute; CPM) HEK293FT-OATP1A2 (OATP1A2; conc 1.00 µM): 7776 CPM and 7509 CPM
- Accumulation (counts per minute; CPM) HEK293FT-MOCK (OATP1A2; conc 3.00 µM): 170 CPM and 194 CPM
- Accumulation (counts per minute; CPM) HEK293FT-OATP1A2 (OATP1A2; conc 3.00 µM): 6621 CPM and 5348 CPM
- Accumulation (counts per minute; CPM) HEK293FT-MOCK (OATP1A2; conc 10.00 µM): 165 CPM and 156 CPM
- Accumulation (counts per minute; CPM) HEK293FT-OATP1A2 (OATP1A2; conc 10.00 µM): 5408 CPM and 5698 CPM
- Accumulation (counts per minute; CPM) HEK293FT-MOCK (OATP1A2; conc 30.00 µM): 149 CPM and 181 CPM
- Accumulation (counts per minute; CPM) HEK293FT-OATP1A2 (OATP1A2; conc 30.00 µM): 4731 CPM and 4729 CPM
- Accumulation (counts per minute; CPM) HEK293FT-MOCK (OATP1A2; conc 100.00 µM): 205 CPM and 204 CPM
- Accumulation (counts per minute; CPM) HEK293FT-OATP1A2 (OATP1A2; conc 100.00 µM): 2008 CPM and 2199 CPM
- distribution between liver and serum ([6]; mice, single oral dose 3 mg/kg, 15 min to 24 h): tended to penetrate the liver more than serum
- liver conc ([6]; 0.5 h, 3 mg/kg): 12066 and 9386 and 11708 and 12618
- serum conc ([6]; 0.5 h, 3 mg/kg): 993.3 and 360.8 and 908.6 and 651.9
- liver conc ([6]; 1 h, 3 mg/kg): 10596 and 9326 and 7020 and 7420
- serum conc ([6]; 1 h, 3 mg/kg): 1072.6 and 672.7 and 566 and 819
- liver conc ([6]; 2 h, 3 mg/kg): 6580 and 5322 and 5300 and 4227.4
- liver conc ([6]; 4 h, 3 mg/kg): 3742.6 and 2509.2 and 2176.6 and 3530.4
- liver conc ([6]; 7 h, 3 mg/kg): 1827.82 and 413.84 and 1236.2 and 1172.8
- serum conc ([6]; 7 h, 3 mg/kg): 0 and 11.2 and 32.3 and 10
- liver conc ([6]; 12 h, 3 mg/kg): 594.8 and 321.278 and 55.624 and 442.92
- serum conc ([6]; 12 h, 3 mg/kg): 12 and 0 (2×) and 18.6
- serum conc ([6]; 24 h): 0
- liver conc ([6]; 24 h, 3 mg/kg): 449.28 and 67.18 and 37.77 and 209.86
